Data taken from article PMC6009956, “Design, synthesis and biological activity of N^4-phenylsubstituted-7H-pyrrolo[2,3-d]pyrimidin-4-amines as dual inhibitors of aurora kinase A and epidermal growth factor receptor kinase” (Journal of Enzyme Inhibition and Medicinal Chemistry, 2017).
Like-named read-outs stand apart in the source and are kept apart here.

Tests used:
[1] = test system: p-HH3 in FADU and SAS SCCHN cell lines; experiment: Western blot of p-HH3 in FADU and SAS cells; assay type: cell-based; conditions: 10 nM
Description: Protein extracts (50 μg per lane) were electrophoretically separated on SDS-PAGE gels, transferred to membranes (Protran, Schleicher & Schuell, Dassel, Germany) and blotted with specific antibodies (actin, aurora A, aurora B: all from Sigma, Munich, Germany; S10-HH3: Millipore, Schwalbach, Germany; EGFR: Santa Cruz, Heidelberg, Germany; pEGFR: Invitrogen, Darmstadt, Germany; pAKT, pERK: both from New England Biolabs, Frankfurt, Germany).
Figure 4. Effects of compound 2 on EGFR and aurora kinases in growing SCCHN cell lines (A) Western blot analysis of EGFR (pEGFR, pERK, p-AKT) and aurora A (p-HH3) downstream target proteins following incubation with 100 μM compound 2 for the indicated time points in BHY and FADU SCCHN cell lines. (B) BHY and CAL cell lines treated for the indicated time points with 200 nM cetuximab. Western blot analysis of EGFR downstream targets. (long exposure and short exposure). […] Western blot analysis of p-HH3 at the indicated time points. Asterisk (*) represents unspecific band.

[2] = target: EGFR (Homo sapiens, UniProt P00533); experiment: ADP-Glo kinase assay, EGFR; assay type: biochemical; set-up: purchased BPS Bioscience (assay run externally by the vendor)
EGFR, sequence (P00533 25-1210): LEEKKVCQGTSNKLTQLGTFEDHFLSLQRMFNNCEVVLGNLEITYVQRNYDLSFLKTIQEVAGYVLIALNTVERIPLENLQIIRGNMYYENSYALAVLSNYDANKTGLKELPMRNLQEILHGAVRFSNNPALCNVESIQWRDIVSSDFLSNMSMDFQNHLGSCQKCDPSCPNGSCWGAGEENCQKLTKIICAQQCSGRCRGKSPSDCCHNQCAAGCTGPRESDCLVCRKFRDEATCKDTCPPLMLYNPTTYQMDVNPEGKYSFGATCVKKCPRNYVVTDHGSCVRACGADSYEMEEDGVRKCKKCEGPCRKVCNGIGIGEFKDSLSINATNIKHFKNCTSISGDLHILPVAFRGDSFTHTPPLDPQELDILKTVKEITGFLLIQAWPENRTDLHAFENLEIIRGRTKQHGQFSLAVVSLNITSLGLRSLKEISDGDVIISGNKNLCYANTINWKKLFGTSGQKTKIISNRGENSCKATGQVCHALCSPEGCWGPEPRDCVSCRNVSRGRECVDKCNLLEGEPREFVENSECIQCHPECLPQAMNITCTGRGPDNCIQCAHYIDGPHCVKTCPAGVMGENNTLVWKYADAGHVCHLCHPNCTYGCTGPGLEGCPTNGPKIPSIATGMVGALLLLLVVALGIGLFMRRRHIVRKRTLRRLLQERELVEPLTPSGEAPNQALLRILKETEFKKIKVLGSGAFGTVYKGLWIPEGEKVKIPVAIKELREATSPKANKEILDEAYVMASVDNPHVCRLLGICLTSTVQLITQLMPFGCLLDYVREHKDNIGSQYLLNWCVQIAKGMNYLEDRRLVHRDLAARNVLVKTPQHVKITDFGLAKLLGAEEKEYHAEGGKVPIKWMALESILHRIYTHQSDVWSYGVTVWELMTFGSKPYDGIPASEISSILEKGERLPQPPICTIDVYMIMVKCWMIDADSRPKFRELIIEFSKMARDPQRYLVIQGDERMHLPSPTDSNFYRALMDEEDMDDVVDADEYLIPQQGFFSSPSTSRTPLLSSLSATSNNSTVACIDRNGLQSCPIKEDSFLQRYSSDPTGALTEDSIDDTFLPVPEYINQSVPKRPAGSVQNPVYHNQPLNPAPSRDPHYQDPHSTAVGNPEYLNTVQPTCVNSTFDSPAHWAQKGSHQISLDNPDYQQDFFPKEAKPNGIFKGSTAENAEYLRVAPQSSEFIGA

[3] = target: T1, aurora A kinase (AURKA) (Homo sapiens, UniProt O14965); experiment: ADP-Glo kinase assay, Aurora A; assay type: biochemical
T1 construct: purchased BPS Bioscience (assay run externally by the vendor)
T1 sequence (O14965 1-403): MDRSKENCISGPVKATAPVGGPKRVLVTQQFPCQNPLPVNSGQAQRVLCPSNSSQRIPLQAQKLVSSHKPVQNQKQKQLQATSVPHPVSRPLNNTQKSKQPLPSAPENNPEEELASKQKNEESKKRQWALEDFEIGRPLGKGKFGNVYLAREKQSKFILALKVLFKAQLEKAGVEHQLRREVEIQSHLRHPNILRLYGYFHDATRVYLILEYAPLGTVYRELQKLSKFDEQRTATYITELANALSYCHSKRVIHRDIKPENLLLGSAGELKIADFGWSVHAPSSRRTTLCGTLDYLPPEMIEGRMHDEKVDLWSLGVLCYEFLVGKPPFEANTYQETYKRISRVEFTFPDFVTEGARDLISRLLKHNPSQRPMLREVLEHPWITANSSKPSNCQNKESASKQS

In the case of `COc1cc(Nc2ncc3c(n2)-c2ccc(Cl)cc2C(c2c(F)cccc2OC)=NC3)ccc1C(=O)O` [MLN8237], the “Histone H3 phosphorylation (p-HH3)” value [1] is reported as “inhibition of histone H3 phosphorylation”.

For `Nc1nc(Nc2cccc(Br)c2)c2cc[nH]c2n1` [Compound 8, N^4-(3-bromophenyl)-7H-pyrrolo[2,3-d]pyrimidine-2,4-diamine], the “Fold less potent than compound 7 against EGFR” value [2] was 100 fold, the IC50 ([2]; 10 µM ATP, triplicate, read-out: EGFR IC50 ± SD) was 0.384 ± 0.0655 µM and the IC50 ([2]; 10 µM ATP/0.2 mg/ml Poly-Glu-Tyr, read-out: EGFR IC50 (dose-response curve, supplement)) was 0.357 µM. The “EGFR % Activity Set1” value ([2]; Log[nM] 0) was 97%, the “EGFR % Activity Set2” value ([2]; Log[nM] 0) was 99% and the “EGFR % Activity Set3” value ([2]; Log[nM] 0) was 99%. The “EGFR % Activity Set1” value ([2]; Log[nM] 1.0) was 95%, the “EGFR % Activity Set2” value ([2]; Log[nM] 1.0) was 102% and the “EGFR % Activity Set3” value ([2]; Log[nM] 1.0) was 91%. For the same compound, the “EGFR % Activity Set1” value ([2]; Log[nM] 1.5) was 93%, the “EGFR % Activity Set2” value ([2]; Log[nM] 1.5) was 102% and the “EGFR % Activity Set3” value ([2]; Log[nM] 1.5) was 84%. For the same compound, the “EGFR % Activity Set1” value ([2]; Log[nM] 2.0) was 80%, the “EGFR % Activity Set2” value ([2]; Log[nM] 2.0) was 83% and the “EGFR % Activity Set3” value ([2]; Log[nM] 2.0) was 82%. The “EGFR % Activity Set1” value ([2]; Log[nM] 2.5) was 51%, the “EGFR % Activity Set2” value ([2]; Log[nM] 2.5) was 49% and the “EGFR % Activity Set3” value ([2]; Log[nM] 2.5) was 53%. The “EGFR % Activity Set1” value ([2]; Log[nM] 3.0) was 26%, the “EGFR % Activity Set2” value ([2]; Log[nM] 3.0) was 23% and the “EGFR % Activity Set3” value ([2]; Log[nM] 3.0) was 27%. The “EGFR % Activity Set1” value ([2]; Log[nM] 3.5) was 12%, the “EGFR % Activity Set2” value ([2]; Log[nM] 3.5) was 9% and the “EGFR % Activity Set3” value ([2]; Log[nM] 3.5) was 10%. The “EGFR % Activity Set1” value ([2]; Log[nM] 4.0) was 4%, the “EGFR % Activity Set2” value ([2]; Log[nM] 4.0) was 5% and the “EGFR % Activity Set3” value ([2]; Log[nM] 4.0) was 4%. For the same compound, the “EGFR % Activity Set1” value ([2]; Log[nM] 4.5) was 2%, the “EGFR % Activity Set2” value ([2]; Log[nM] 4.5) was 3% and the “EGFR % Activity Set3” value ([2]; Log[nM] 4.5) was 1%. For the same compound, the “EGFR % Activity Set1” value ([2]; Log[nM] 5.0) was 1%, the “EGFR % Activity Set2” value ([2]; Log[nM] 5.0) was 1% and the “EGFR % Activity Set3” value ([2]; Log[nM] 5.0) was 2%. The “Fold less potent than compound 2 against AURKA” value [3] was “approximately two-fold”, the IC50 ([3]; 10 µM ATP, triplicate, read-out: AURKA IC50 ± SD) was 4.54 ± 0.93 µM and the IC50 ([3]; 10 µM ATP/0.2 mg/ml Kemptide, read-out: Aurora A IC50 (dose-response curve, supplement)) was 4.5 µM. The “Aurora A % Activity Set1” value ([3]; Log[nM] 0) was 103%, the “Aurora A % Activity Set2” value ([3]; Log[nM] 0) was 107% and the “Aurora A % Activity Set3” value ([3]; Log[nM] 0) was 99%. The “Aurora A % Activity Set1” value ([3]; Log[nM] 1.0) was 110%, the “Aurora A % Activity Set2” value ([3]; Log[nM] 1.0) was 101% and the “Aurora A % Activity Set3” value ([3]; Log[nM] 1.0) was 111%. The “Aurora A % Activity Set1” value ([3]; Log[nM] 1.5) was 109%, the “Aurora A % Activity Set2” value ([3]; Log[nM] 1.5) was 108% and the “Aurora A % Activity Set3” value ([3]; Log[nM] 1.5) was 105%. The “Aurora A % Activity Set1” value ([3]; Log[nM] 2.0) was 109%, the “Aurora A % Activity Set2” value ([3]; Log[nM] 2.0) was 109% and the “Aurora A % Activity Set3” value ([3]; Log[nM] 2.0) was 109%. For the same compound, the “Aurora A % Activity Set1” value ([3]; Log[nM] 2.5) was 96%, the “Aurora A % Activity Set2” value ([3]; Log[nM] 2.5) was 101% and the “Aurora A % Activity Set3” value ([3]; Log[nM] 2.5) was 113%. For the same compound, the “Aurora A % Activity Set1” value ([3]; Log[nM] 3.0) was 84%, the “Aurora A % Activity Set2” value ([3]; Log[nM] 3.0) was 80% and the “Aurora A % Activity Set3” value ([3]; Log[nM] 3.0) was 92%. For the same compound, the “Aurora A % Activity Set1” value ([3]; Log[nM] 3.5) was 55%, the “Aurora A % Activity Set2” value ([3]; Log[nM] 3.5) was 57% and the “Aurora A % Activity Set3” value ([3]; Log[nM] 3.5) was 59%. The “Aurora A % Activity Set1” value ([3]; Log[nM] 4.0) was 30%, the “Aurora A % Activity Set2” value ([3]; Log[nM] 4.0) was 28% and the “Aurora A % Activity Set3” value ([3]; Log[nM] 4.0) was 29%. The “Aurora A % Activity Set1” value ([3]; Log[nM] 4.5) was 11%, the “Aurora A % Activity Set2” value ([3]; Log[nM] 4.5) was 11% and the “Aurora A % Activity Set3” value ([3]; Log[nM] 4.5) was 11%. The “Aurora A % Activity Set1” value ([3]; Log[nM] 5.0) was 8%, the “Aurora A % Activity Set2” value ([3]; Log[nM] 5.0) was 7% and the “Aurora A % Activity Set3” value ([3]; Log[nM] 5.0) was 8%.
